Assay results reported in patent publication US20010055541A1, “Porous material disinfection method” (priority 2000, published 2001).

Key:
[1] = system: human immunodeficiency virus (HIV); details: non-toxic concentration of 4 μg ozone per ml of serum; cited from earlier work
Escherichia coli = Escherichia coli in 19 minutes from raw waste water; cited from earlier work
[2] = system: Bacillus subtilis v. globigii spores; details: within 1.5-2 minutes, water purged with 3% ozone by weight; cited from earlier work
Candida tropicalis = Candida tropicalis in 0.30 minutes from ozone-demand free water; cited from earlier work
Poliovirus type I = Poliovirus type I in 9 minutes from activated sludge effluent; cited from earlier work
Naegleria gruberi = Naegleria gruberi in 1.1 minutes from ozone-demand free phosphate buffer solution; cited from earlier work
[3] = system: Bacillus stearothermophilus (ATCC 7953); assay: Resistance of six organisms to sterilization with ozone gas (Example I); details: six organisms compared, cell density 10^4-10^7, minimum of three runs

In the case of `O=[O+][O-]` [ozone], the “log reduction in the infectious titer” value [1] is given as “six-log reduction”, the “ozone concentration reported for a 99% reduction” value (Escherichia coli) is given as 2.2 mg/L and the “log reduction of bacterial spores” value [2] is given as “four-log reduction”. The “ozone concentration reported for a 99% reduction” value (Candida tropicalis) was 0.02 mg/L, the “ozone concentration reported for a 99% reduction” value (Poliovirus type I) was 0.2 mg/L and the “ozone concentration reported for a 99% reduction” value (Naegleria gruberi) was 1.2 mg/L. The “resistance of organism to ozone exposure (ability to maintain viability)” value [3] was “most resistant organism”.
